Where “and” joins values, the source holds several entries; their conditions need not be identical. Equal values may be shown once. Read-outs that look alike come from different tables or passages of the source.
Assays:
[1] = Additional combination experiments with Compound 1; format: cell-based
[2] = test system: Jurkat human T cell leukemia cells; experiment: Sensitization to DNA damaging chemotherapeutic agents, relative ATP viability, 3 days; conditions: for Fold change (IC50 in Jurkat cells): without vs with 0.5 nM Compound 1
Experimental: (§1) Cells were plated in logarithmic growth phase at 500-20,000 cells per well in 96-well clear bottom plates (Corning; Corning, N.Y.) and cultured for 14 to 16 hours prior to the start of drug treatment. Serial dilutions of Compound 2 and Compound 1 were made in DMSO, diluted 1:50 in RPMI-1640 (Hyclone; Logan, Utah) and then added to tissue culture media at a final concentration of 0.2% DMSO. […] Relative ATP levels were determined by the bioluminescent measuring of cellular ATP levels in each culture well with the ViaLight-HS High Sensitivity Cytotoxicity and Cell Proliferation BioAssay Kit (Cambrex Bioproducts, Cat. No. LT07-311; Charles City, Iowa) according to manufacturer's instructions. Briefly, a cell permeabilizing reagent was added to each culture well in media at the time of viability determination, allowing free ATP to be released from viable cells in the culture. Addition of luciferase to the mixture catalyzes the release of light proportional to the amount of free ATP present, which can then be quantified in a Centro LB 960 luminometer (EG&G Berthold; Oak Ridge, Tenn.); the level of ATP is generally directly proportional to the viability of the cells.
(§2) Sigmoidal dose response curves were then generated using non-linear regression analysis of variable slope by Prism Version 4.00 for Windows (GraphPad Software, Inc.; San Diego, Calif.) and IC50 values calculated.
(§3) The IC50 values for the treatment with the DNA damaging agent were calculated relative to control cells that were treated with DMSO only.

[3] = test system: DMS-114 human small cell lung carcinoma cells; experiment: as above; format: cell-based; conditions: for Fold change (IC50 in DMS-114 cells): without vs with 0.75 nM Compound 1
Experimental: as §1, §2, §3

[4] = test system: HeLa cells; conditions: Compound 1 20 nM, NM contained 0.1% NA
Experimental: Viability was measured after 72 hours by ViaLight assay (assessing ATP levels). […] Each bar is the mean±SD of quadruplicate samples. Each figure is representative of two independent experiments.
Viability was measured after 72 hours by ViaLight assay. […] Each point represents the mean and error bars the SD of triplicate samples. […] The concentration of nicotinamide in RPMI 1640 media was […]. HeLa cells were transiently transfected with vector (pcDNA3) or a plasmid expressing a flag-tagged yeast PNC1 gene (pcFLAG-PNC1). […] Relative viability was assessed after 72 hours by ViaLight assay.

[5] = Nicotinic acid as antidote to a lethal 24 h infusion of Compound 2 in non-tumor-bearing mice; conditions: Compound 2 650 mg/kg 24 h infusion
Experimental: CB17 SCID female mice, 5 mice per group, who were not bearing tumors were administered a lethal dose of Compound 2 as a 24 h infusion of Compound 2 at 650 mg/kg. Thereafter, mice were infused with saline for 24 h (Group 1); a niacin solution (12 mg/mL) for 4 hours at a dose of 90 mg/m2/h (30 mg/kg/h) followed by saline for another 20 h at a flow rate of 50 μL/h (Group 2); or a niacin solution (12 mg/mL) for 24 hours at a dose of 90 mg/m^2/h (30 mg/kg/h) with a flow rate of 50 μL/h.

[6] = test system: Human Fibrosarcoma HT1080 cancer cells; experiment: Xenograft of a cancer deficient in nicotinic acid pathway; format: in vivo, mice
Experimental: Human Fibrosarcoma HT1080 cancer cells were maintained in RPMI (Hyclone, Utah, USA) supplemented with 10% inactivated fetal bovine serum (Bio-Whittaker, Md., USA) and 1% penicillin-streptomycin-L-Glutamine (Gibco; NY, USA), under 5% CO2 at 37° C. HT1080 cells were transplanted subcutaneously into the flank of female mice. Each mouse was inoculated with a suspension of 1×10^6 tumors cells per 100 μl in PBS on day zero.
Treatments started on day fifteen after HT1080 cells transplantation. […] The control group was treated with vehicle (0.9% NaCl) alone for 104 hours. Treatments were conducted using Lomir External pump—Model 220 with a flow rate of 50 μL/hr (˜2.5 mL/kg/hr) and equipped with 1 cc syringes for treated groups or equipped with 10 cc syringes for the control group. Compound 2 was prepared fresh for dosing and formulated in a vehicle solution of 10 mM citrate buffer at pH 4.8.
Observation continued for 22 days after initial tumor implantation.

[7] = test system: human multiple myeloma IM-9 cancer cells; experiment: Xenograft of a cancer not deficient in nicotinic acid pathway; format: in vivo, CB17 SCID mice; conditions: Compound 2 150 mg/kg IV 24 hours infusion from day eight; observation 23 days
Experimental: Human multiple myeloma IM-9 cancer cells were maintained in RPMI (Hyclone, Utah, USA) supplemented with 10% inactivated fetal bovine serum (Bio-Whittaker; MD, USA) and 1% penicillin-streptomycin-L-Glutamine (Gibco; NY, USA), under 5% CO2 at 37° C. IM-9 cells were transplanted subcutaneously into the flank of female mice. Each mouse was inoculated with a suspension of 10×10^6 tumors cells per 100 μl in PBS on day zero.
Treatments started on day eight after IM-9 cells transplantation. […] The control group was treated with vehicle (0.9% NaCl) alone for 104 hours. […] Compound 2 was prepared fresh for dosing and formulated in a vehicle solution of 10 mM citrate buffer at pH 4.8.
Observation continued for 23 days after initial tumor implantation.

[8] = Nicotinic acid pre-treatment against lethal intramuscular Compound 2 in non-tumor-bearing mice
[9] = target: human NMPRT (Homo sapiens, UniProt P43490); conditions: cited from earlier work
Sequence of human NMPRT (P43490 whole entry): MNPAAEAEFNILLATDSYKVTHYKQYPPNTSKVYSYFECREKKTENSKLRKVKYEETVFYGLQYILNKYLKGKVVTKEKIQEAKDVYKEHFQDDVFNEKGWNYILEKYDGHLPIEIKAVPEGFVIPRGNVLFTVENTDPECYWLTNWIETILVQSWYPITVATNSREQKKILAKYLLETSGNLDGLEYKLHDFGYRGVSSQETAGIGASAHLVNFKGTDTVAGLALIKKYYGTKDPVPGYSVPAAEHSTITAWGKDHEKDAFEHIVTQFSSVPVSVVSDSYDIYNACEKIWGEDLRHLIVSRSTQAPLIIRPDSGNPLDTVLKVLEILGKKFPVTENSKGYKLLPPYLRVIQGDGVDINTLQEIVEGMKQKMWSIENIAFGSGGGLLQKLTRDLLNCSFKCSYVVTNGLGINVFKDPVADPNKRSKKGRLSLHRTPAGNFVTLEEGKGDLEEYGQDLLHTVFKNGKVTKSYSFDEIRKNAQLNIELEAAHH

[10] = Homo sapiens, Jurkat, 72 h, read-out: IC50 in Jurkat cells (μM), DNA damaging chemotherapeutic agent + No Compound 1
[11] = read-out: IC50 in Jurkat cells (μM), DNA damaging chemotherapeutic agent + 0.5 nM Compound 1, with 0.5 nM Compound 1, 3 days, relative to Compound 1 only control
[12] = Homo sapiens, DMS-114, 72 h, read-out: IC50 in DMS-114 cells (μM), DNA damaging chemotherapeutic agent + No Compound 1, agent alone, 3 days, relative to DMSO control
[13] = read-out: IC50 in DMS-114 cells (μM), DNA damaging chemotherapeutic agent + 0.75 nM Compound 1, with 0.75 nM Compound 1, 3 days, relative to Compound 1 only control

SMILES: O=P1(N(CCCl)CCCl)NCCCO1 (stereo not drawn) [Cyclophosphamide]
- Combination effect in the presence of Compound 1 [1]: less than additive effect

SMILES: Cn1nnc2c(C(N)=O)ncn2c1=O [Temozolomide]
- IC50 [2, 10]: 212 ± 135 µM
- IC50 [2, 11]: 158 ± 125 µM
- Fold change (IC50 in Jurkat cells) [2]: 1.46 ± 0.26
- IC50 [3, 12]: 339 ± 190 µM
- IC50 [3, 13]: 50.1 ± 7.83 µM
- Fold change (IC50 in DMS-114 cells) [3]: 2.53 ± .11

SMILES: CC(=O)O[C@H]1C(=O)[C@@]2(C)[C@H]([C@H](OC(=O)c3ccccc3)[C@]3(O)C[C@H](OC(=O)[C@H](O)[C@@H](NC(=O)c4ccccc4)c4ccccc4)C(C)=C1C3(C)C)[C@]1(OC(C)=O)CO[C@@H]1C[C@@H]2O [Paclitaxel]
- Combination effect in the presence of Compound 1 [1]: less than additive effect

SMILES: NC(=O)c1cccnc1 [nicotinamide]
- Concentrations rescuing viability relative to those required for NA rescue [4]: 1,000 ×

SMILES: CN(N=O)C(=O)N[C@H]1C(O)O[C@H](CO)[C@@H](O)[C@@H]1O (mixture of isomers) [Streptozotocin]
- IC50 [2, 11]: 360 ± 304 µM
- IC50 ([2]; read-out: IC50 in Jurkat cells (μM), DNA damaging chemotherapeutic agent + No Compound 1, agent alone, 3 days, relative to DMSO control): 1014 ± 10 µM
- IC50 [3, 13]: 391 ± 152 µM
- IC50 ([3]; read-out: IC50 in DMS-114 cells (μM), DNA damaging chemotherapeutic agent + No Compound 1, agent alone, 3 days, relative to DMSO control): 3960 ± 2270 µM

SMILES: CNNCc1ccc(C(=O)NC(C)C)cc1 [Procarbazine]
- Combination effect in the presence of Compound 1 [1]: less than additive effect

SMILES: COCCOCCOCCOCCOC(=O)OC[n+]1ccc(NC(=NC#N)NCCCCCCOc2ccc(Cl)cc2)cc1.[Cl-] [Compound 2, 1-[2-(2-(2-(2-Methoxyethoxy)-ethoxy)-ethoxy)-ethoxy-carbonyloxymethyl]-4-[N′-cyano-N″-(6-(4-chlorophenoxy)-hexyl)-N-guanidino]-pyridinium chloride]
- Mortality by day 5 ([5]; then nicotinic acid 90 mg/m^2/h for 4 h (Group 2)): 0/4
- Mortality by day 5 ([5]; then nicotinic acid 90 mg/m^2/h for 24 h (Group 3)): 0/5
- Mortality by day 5 ([5]; then saline, no nicotinic acid (Group 1), 650 mg/kg): 3 of the 5 and 3/5
- Tumor growth compared to vehicle ([6]; Compound 2 150 mg/kg IV 24 hours infusion from day fifteen, observation 22 days): statistically significant reduction in tumor growth
- Tumor growth compared to vehicle ([6]; Compound 2 650 mg/kg IV 24 hours infusion): significant reduction in tumor growth
- Mortality in treatment group ([6]; Compound 2 650 mg/kg IV 24 hours infusion, tumor-bearing mice): mortality of a mouse in this treatment group
- Tumor growth compared to vehicle [7]: statistically significant reduction in tumor growth
- Mortality by day 11 ([8]; Compound 2 250 mg/kg intramuscular QD × 5, no nicotinic acid, 250 mg/kg): 3 of the 5 and 3/5
- Mortality by day 11 ([8]; Compound 2 250 mg/kg intramuscular QD × 5, nicotinic acid pre-treatment 200 mg/kg IV QD × 5): 0/5
- Mortality by day 11 ([8]; Compound 2 250 mg/kg intramuscular QD × 5, nicotinic acid pre-treatment 200 mg/kg PO QD × 5): 0/5
- Mortality by day 11 ([8]; Compound 2 250 mg/kg intramuscular QD × 5, nicotinic acid pre-treatment 200 mg/kg SC QD × 5): 0/5

SMILES: O=C(/C=C/c1cccnc1)NCCCCC1CCN(C(=O)c2ccccc2)CC1 [FK866, (E)-N-[4-(1-benzoylpiperidin-4-yl)butyl]-3-(pyridin-3-yl)acrylamide]
- Inhibition of human NMPRT [9]: potent

SMILES: O=NN(CCCl)C(=O)NCCCl [Carmustine]
- IC50 [2, 10]: 2.97 ± 1.1 µM
- IC50 [2, 11]: 3.13 ± 0.49 µM
- Fold change (IC50 in Jurkat cells) [2]: 0.93 ± 0.21
- IC50 [3, 12]: 33.3 ± 7.3 µM
- IC50 [3, 13]: 11.5 ± 3.6 µM
- Fold change (IC50 in DMS-114 cells) [3]: 6.12 ± 7.5

SMILES: NC(=O)c1ncn([C@@H]2O[C@H](CO)[C@@H](O)[C@H]2O)n1 [Ribavirin]
- IC50 [2, 10]: 63.3 ± 10 µM
- IC50 [2, 11]: 15.5 ± 3.1 µM
- Fold change (IC50 in Jurkat cells) [2]: 4.09 ± 0.16
- IC50 [3, 12]: 172 µM
- IC50 [3, 13]: 173 µM
- Fold change (IC50 in DMS-114 cells) [3]: 0.99

SMILES: Sc1ncnc2nc[nH]c12 [6-Mercaptopurine]
- Combination effect in the presence of Compound 1 [1]: less than additive effect

From patent publication US8211912B2, “Compositions and methods for effecting NAD+ levels using a nicotinamide phosphoribosyl tranferase inhibitor” (Gemin X Pharmaceuticals Canada, priority 2007, dated 2012)
